{
  "source": "paper PMC6033897",
  "about": "“Characterization and Validation of a Human 3D Cardiac Microtissue for the Assessment of Changes in Cardiac Pathology” (Scientific Reports, 2018)",
  "key": {"cardiac microtissues [1]": {"test_system": "cardiac microtissues", "test": "Cellular viability (ATP depletion, CellTiter-Glo) in cardiac microtissues", "format": "cell-based, human", "settings": "Homo sapiens, cardiac microtissues, read-out: Cellular viability (ATP depletion) IC50", "protocol": "(§1) Cellular ATP concentrations were assessed using the CellTiter-Glo® Luminescent Cell Viability Assay as per the manufacturer’s instructions (Promega); for cardiac microtissues 40 µl media was removed prior to the addition of 40 µl CellTiter-Glo® reagent. […] Data from the same treatment on minimum of 3 occasions were averaged to represent the mean ATP measurement."}, "cardiac microtissues [2]": {"test_system": "cardiac microtissues", "test": "ER integrity (ER-Tracker blue imaging) in cardiac microtissues", "format": "cell-based, human", "settings": "Homo sapiens; cardiac microtissues, 72 hours, geometric mean; read-out: ER integrity IC50", "protocol": "(§2) Cardiac microtissues were stained with fluorescent probes in cell culture media, 40 µl media was removed and 40 µl of 2x multiplexed dye was added back to the well for 30 minutes at 37 °C, 5% CO2. Fluorescent probes used were ER-Tracker blue (2 µM) to measure endoplasmic reticulum (ER) integrity and TMRE (500 nM) to measure mitochondrial membrane potential (ΔΨm). All microtissues were imaged on a Cell Voyager 7000 (YokogawaInc.) and images captured using a 20x objective (Olympus UPLSAPO 0.75 NA, 0.6 mm WD), with a 2 × 2 bin. Plates are imaged live, prior to use the stage temperature was set to 37 °C and CO2 level at 5%. […] Transmitted light images were acquired using a 100 W Halogen lamp as an illumination source. Images were captured over a 60 μm range in the Z-axis with a 5 μm interval between slices. Z-stack images were output as a maximal projection of multiple z-planes.\n(§3) Maximum projection images were imported and analysed in the Columbus Platform (v2.7, Perkin Elmer Inc.)."}, "cardiac microtissues [3]": {"test_system": "cardiac microtissues", "test": "Mitochondrial membrane potential (ΔΨm, TMRE imaging) in cardiac microtissues", "format": "cell-based, human", "settings": "Homo sapiens; cardiac microtissues, 72 hours, geometric mean; read-out: Mitochondrial membrane potential (ΔΨm) IC50", "protocol": "as §2, §3"}, "hCMEC [4]": {"test_system": "hCMEC", "test": "ER integrity in 2D monoculture", "format": "cell-based", "settings": "Homo sapiens", "protocol": "(§4) For 2D monoculture, hiPS-CM, hCMEC and hCF were cultured as described above and seeded in CellCarrier-384 Ultra microplates (Perkin Elmer, 6057300) at 5000, 2500 and 1750 cells/well respectively.\n(§5) Monoculture cells were stained with fluorescent probes diluted in cell culture media, 25 µl media was removed and 25 µl of 2x multiplexed dye was added back to the well for 15 minutes at 37 °C, 5% CO2."}, "hiPS-CM [5]": {"test_system": "hiPS-CM", "test": "ER integrity in 2D monoculture", "format": "cell-based", "settings": "Homo sapiens", "protocol": "as §4, §5"}, "hCMEC [6]": {"test_system": "hCMEC", "test": "Mitochondrial membrane potential (ΔΨm) in 2D monoculture", "format": "cell-based", "settings": "Homo sapiens", "protocol": "as §4, §5"}, "hiPS-CM [7]": {"test_system": "hiPS-CM", "test": "Mitochondrial membrane potential (ΔΨm) in 2D monoculture", "format": "cell-based", "settings": "Homo sapiens", "protocol": "as §4, §5"}, "hCMEC [8]": {"test_system": "hCMEC", "test": "Cellular viability (ATP depletion) in 2D monoculture", "format": "cell-based", "settings": "Homo sapiens", "protocol": "as §4, §1"}, "hiPS-CM [9]": {"test_system": "hiPS-CM", "test": "Cellular viability (ATP depletion) in 2D monoculture", "format": "cell-based", "settings": "Homo sapiens", "protocol": "as §4, §1"}, "cardiac spheroids": {"test_system": "cardiac spheroids", "set-up": "method as in PMID 28765558", "settings": "alternative cardiac spheroids; cited from earlier work"}, "[10]": {"settings": "total Cmax, therapeutically relevant maximum total plasma concentration; source not given; cited from earlier work"}, "hCF [11]": {"test_system": "hCF", "test": "ER integrity in 2D monoculture", "settings": "Homo sapiens, read-out: ER integrity IC50"}, "hCF [12]": {"test_system": "hCF", "test": "Cellular viability (ATP depletion) in 2D monoculture", "settings": "Homo sapiens, read-out: Cellular viability (ATP depletion) IC50"}, "hCF [13]": {"test_system": "hCF", "test": "Mitochondrial membrane potential (ΔΨm) in 2D monoculture", "settings": "Homo sapiens, read-out: Mitochondrial membrane potential (ΔΨm) IC50"}},
  "note": "Counter-ions that a name gives are not always drawn.",
  "data": [
    {"smiles": "COc1cccc2c1C(=O)c1c(O)c3c(c(O)c1C2=O)C[C@@](O)(C(=O)CO)C[C@@H]3O[C@H]1C[C@H](N)[C@H](O)[C@H](C)O1", "note": "[Doxorubicin HCl]", "values": [
      {"measurement": "IC50", "setting": "cardiac microtissues [1]; 24 hours", "result": 15.5, "unit": "µM"},
      {"measurement": "IC50", "setting": "cardiac microtissues [1]; 72 hours, geometric mean", "result": 0.83, "unit": "µM"},
      {"measurement": "IC50", "setting": "cardiac microtissues [2]", "result": 3.18, "unit": "µM"},
      {"measurement": "IC50", "setting": "cardiac microtissues [3]", "result": 0.18, "unit": "µM"},
      {"measurement": "IC50", "setting": "hCMEC [4]; 24 hours", "result": 43.6, "unit": "µM"},
      {"measurement": "IC50", "setting": "hCMEC [4]; 72 hours", "result": 31, "unit": "µM"},
      {"measurement": "IC50", "setting": "hiPS-CM [5]; 24 hours", "result": 10.5, "unit": "µM"},
      {"measurement": "IC50", "setting": "hiPS-CM [5]; 72 hours", "result": 76.5, "unit": "µM"},
      {"measurement": "IC50", "setting": "hCMEC [6]; 24 hours", "result": "> 50", "unit": "µM"},
      {"measurement": "IC50", "setting": "hCMEC [6]; 72 hours", "result": "> 50", "unit": "µM"},
      {"measurement": "IC50", "setting": "hiPS-CM [7]; 24 hours", "result": 8.28, "unit": "µM"},
      {"measurement": "IC50", "setting": "hiPS-CM [7]; 72 hours", "result": 16.9, "unit": "µM"},
      {"measurement": "IC50", "setting": "hCMEC [8]; 24 hours", "result": 1.03, "unit": "µM"},
      {"measurement": "IC50", "setting": "hCMEC [8]; 72 hours", "result": 0.1, "unit": "µM"},
      {"measurement": "IC50", "setting": "hiPS-CM [9]; 24 hours", "result": 9.26, "unit": "µM"},
      {"measurement": "IC50", "setting": "hiPS-CM [9]; 72 hours", "result": 1.01, "unit": "µM"},
      {"measurement": "Concentration range with significant change in live/dead staining", "setting": "cardiac spheroids", "result": "5 to 40", "unit": "µM"},
      {"measurement": "Cmax", "setting": "[10]", "result": 15.3, "unit": "µM"},
      {"measurement": "IC50", "setting": "hCF [11]; 24 h", "result": 6.39, "unit": "µM"},
      {"measurement": "IC50", "setting": "hCF [11]; 72 h", "result": 46.6, "unit": "µM"},
      {"measurement": "IC50", "setting": "hCF [12]; 24 h", "result": 0.62, "unit": "µM"},
      {"measurement": "IC50", "setting": "hCF [12]; 72 h", "result": 0.11, "unit": "µM"},
      {"measurement": "IC50", "setting": "hCF [13]; 24 h", "result": "> 50", "unit": "µM"},
      {"measurement": "IC50", "setting": "hCF [13]; 72 h", "result": "> 50", "unit": "µM"}
    ]}
  ]
}
